# Assay results from patent US7700587B2, “Haloperidol analogs” (Florida A&M University, priority 2004, dated 2010).
# Columns and labels:
# Swiss male mice = assay: Apomorphine induced climbing-stereotypy; assay type: in vivo; details: for inhibition of apomorphine induced climbing (dopamine receptor antagonist in vivo): intraperitoneal, apomorphine challenge
# Male SD rats = assay: Bar test for catalepsy; assay type: in vivo; details: for statistical comparison of effects in catalepsy bar test (t-test, p<0.05): all four doses; for catalepsy (EPS) in bar test: subcutaneous, at the doses used
# Method: Bar test for catalepsy: A modified bar test by Needham et al, supra was used. […] Catalepsy severity was assessed immediately at various time points (15, 30, 45, 60, and 90 min) post injection, by scoring how long the rat maintained both forepaws motionless on a horizontal metal bar (1.1 cm in diameter, 10 cm above the bench top in a box). A score of 1 was given for every 5 seconds (2 min. maximum) the animal remained on the bar. Mean scores from 5 animals per time point were recorded for catalepsy and plotted in FIG. 2.
# Statistical analysis: The student t-test was used to compare the three compounds used in the animal behavioral tests. Results were considered significant at p<0.05.
Compound,"statistical comparison of effects in climbing test (t-test, p<0.05) (Swiss male mice; all four doses)",inhibition of apomorphine induced climbing (dopamine receptor antagonist in vivo) (Swiss male mice; listed as 2),inhibition of apomorphine induced climbing (dopamine receptor antagonist in vivo) (Swiss male mice; listed as drawing 7),"statistical comparison of effects in catalepsy bar test (t-test, p<0.05) (Male SD rats)","statistical comparison of effects in catalepsy bar test (t-test, p<0.05) (Male SD rats; listed as the analog)",catalepsy (EPS) in bar test (Male SD rats; listed as 2),catalepsy (EPS) in bar test (Male SD rats; listed as drawing 7),inhibition of apomorphine induced climbing (dopamine receptor antagonist in vivo) (Swiss male mice)
"O=C(CCCN1CCC(O)(c2ccc(Cl)cc2)C1)c1ccc(F)cc1 (racemic) [Analog [A] (2), 4-[3-hydroxy-3-(4′-chlorophenyl)pyrrolidinyl]-4″-fluorobutyrophenone]",significantly different from compound 1 but non significantly different from compound 3,could inhibit apormophine induced climbing in mice,act as antidopaminergics in vivo,statistically similar to clozapine's,significantly different from compound 1 but non significantly different from compound 3,no catalepsy,much less severe EPS (manifested as catalepsy in animal models) than haloperidol,
"O=C(CCCN1CCC(O)(c2ccc(Cl)cc2)CC1)c1ccc(F)cc1 [Haloperidol (1), 4-[4-(4-chlorophenyl)-4-hydroxy-1-piperidinyl]-1-(4-fluorophenyl)-1-butanone, reference compound]",,,,,,,,acting as a dopamine receptor antagonist
"8-chloro-1-(4-methyl-1-piperazinyl)-5H-dibenzo[b,e]-[1,4]-diazepine [Clozapine (3), reference compound]",,,,,,,,acting as a dopamine receptor antagonist
